Experimental data: patent US8901313B2, “6,5-heterocyclic propargylic alcohol compounds and uses therefor” (Genentech, Inc., priority 2011, dated 2014)

Legend:
[1] = tested on: human embryonic kidney 293 cells; experiment: 293-NIK TK Renilla Luciferase reporter (general measure of cell viability); type: cell-based; details: HEK293, 293 cells, constitutive Renilla luciferase, 24 hours, read-out: inhibitory value (IC50) for 293-NIK TK Renilla Luciferase activity
From the text: (§1) (1) The first assay was used to profile whether a test compound can inhibit the NF-kB signally through NIK inhibition without affecting cell viability. In this assay, human embryonic kidney 293 cells was stably transfected with a tetracycline-inducible NIK DNA construct containing a cytomegalovirus promoter plus two reporter DNA constructs. One reporter encoded firefly luciferase under the control of three repeats of an NF-kB response element from the ELAM-1 gene and reflects the level of NIK activity in the cells, whereas the other reporter constitutively expressed Renilla luciferase under the control of the herpes simplex virus thymidine kinase promoter and served as a general measure of cell viability. Cells were incubated with different concentrations of compounds (0.2% DMSO final) in medium containing 1 ug/mL doxycycline and 10% tet-system approved fetal bovine serum (Clontech) for 24 hours, after which the reporters' signals were detected using the Dual Glo luciferase detection system (Promega) according to the vendor's protocol. The compounds listed in Table 1 have the corresponding inhibitory value (IC50 in micromolar) for 293-NIK NF-kB-Luciferase activity (values for compounds are presented in the same order as found in Table 1): na, 0.059, na, na, na, 0.105, 0.027, na, 20, 1.2, na, 1.8, 0.0231, 0.879, 0.0361, 0.582, na, 0.142, na, 0.403, 0.059, 0.0331, na, na, 0.0573, 1.5, na, na, 0.0722, na, na, 0.589, 12.7, 3.7, 14.9, na, 0.707, 1, 0.0311, 0.332, 0.309, 0.0142, 0.051, 2.8, 0.129, na, na, 1.5, na, na, na, 1.3, 0.062, 20, 0.31, 0.104, 0.091, 0.037, 0.085, 0.279, na, 0.305, 0.064, 0.332, 0.133, 0.168, 0.217, 0.553, na and na.
The compounds in listed in Table 1 have the corresponding inhibitory value (IC50 in micromolar) for 293-NIK TK Renilla Luciferase activity: (values for compounds are presented in the same order as found in Table 1): 6.4, 3.6, 20, na, 1.6, 9.3, 18.5, na, na, 2.6, na, na, na, na, na, na, na, na, na, na, na, na, na, na, na, na, na, na, na, na, na, na, na, na, na, na, na, na, na, na, na, na, na, na, na, na, na, >20, na, na, na, 20, >20, 17, 1.3, 15.6, 0.967, 2.7, 11.2, 5.1, na, 20, 20, 20, 20, 20, 17.6, 20, na and na.

[2] = tested on: REL-A (p65) nuclear translocation in HeLa cells; experiment: NIK RelA Translocation Assay (classical NF-kB signaling); type: cell-based; details: Homo sapiens; HeLa cells, compounds 4.5 hours, 10 ng/mL TNF-α 30 minutes; read-out: inhibitory value (IC50) for NIK RelA Translocation Assay
Procedure: (§2) (2) A second set of cell assay was used to define the selectivity of NIK inhibitors toward inhibition of classical vs. non-classical NF-kB signaling and rely on quantification of the nuclear translocation of p52 (NF-kB2) and REL-A (p65) using high content cellular imaging. For the p52 (non-classical NF-kB signaling) nuclear translocation assay, HeLa cells were treated with different concentrations of compounds (0.2% DMSO final) in medium containing 10% fetal bovine serum and then stimulated with 100 ng/mL of an anti-lymphotoxin beta receptor antibody (R&D Systems) for 5 hours. In the REL-A nuclear translocation assay, HeLa cells were incubated with compounds (0.2% DMSO final) for 4.5 hours in medium containing 10% fetal bovine serum before stimulating them with 10 ng/mL tumor necrosis factor (TNF)-α (R&D Systems) for 30 minutes. Cells were fixed with 4% paraformaldehyde, permeabilized by adding 0.1% Triton X-100 in phosphate buffered saline, and then incubated with either 2 ug/mL anti-p52 antibody (Millipore) or 400 ng/mL anti-REL-A (p65) antibody (Santa Cruz Biotechnology). Finally, the cells were incubated with an Alexa488-labeled secondary antibody (Invitrogen) and DRAQ5 DNA stain (Biostatus). Imaging was carried out using an Opera reader (Perkin Elmer) and data are analyzed with the aid of Acapella software (Perkin Elmer). The p52 or REL-A translocation into the nucleus was quantified by the ratio of the nuclear to cytoplasmic signal intensity. The concentration of inhibitor required for 50% inhibition (IC50 values) in these cell assays were derived from the plots of signal vs. inhibitor concentration. The compounds in listed in Table 1 have the corresponding inhibitory value (IC50 in micromolar) for NIK p52 Translocation Assay (values for compounds are presented in the same order as found in Table 1, and “na” means the data for this assay is to be determined): 0.326, 0.33, na, na, na, 0.218, 0.07, na, na, na, 0.129, 7.6, 0.077, 3.4, na, 0.518, na, 0.059, 0.514, 0.127, na, na, 0.010, na, na, 0.313, 0.275, na, 0.0727, na, na, na, na, na, na, 0.194, na, 6.4, 0.22, 0.346, na, na, na and na, na, na, na, na, na, 0.447, na, 0.089, 0.479, 0.489, 0.243, 0.747, 1, na, 1.9, 0.552, 2.1, na. na, na, na, na and na.
The compounds in listed in Table 1 has the corresponding inhibitory value (IC50 in micromolar) for NIK RelA Translocation Assay (values for compounds are presented in the same order as found in Table 1): 0.326, 0.33, na, na, na, 0.218, 0.07, na, na, na, na, na, 0.129, 7.6, 0.077, 3.4, na, 0.518, na, 0.059, 0.514, 0.127, na, na, 0.010, na, na, 0.313, 0.275, na, na, 0.0727, na, na, na, na, na, na, 0.194, na, 6.4, 0.22, 0.346, na, na, na, na, na, na, na, na, na, 0.447, na, 0.089, 0.479, 0.489, 0.243, 0.747, 1, na, 1.9, 0.552, 2.1, na, na, na, na, na and na.

[3] = tested on: p52 (NF-kB2) nuclear translocation in HeLa cells; experiment: NIK p52 Translocation Assay (non-classical NF-kB signaling); type: cell-based; details: Homo sapiens; HeLa cells, 100 ng/mL anti-lymphotoxin beta receptor antibody, 5 hours; read-out: inhibitory value (IC50) for NIK p52 Translocation Assay
Procedure: as §2

[4] = molecular target: T1, nuclear factor-kappa B (NF-kB)-inducing kinase (NIK) (Homo sapiens, UniProt Q99558); experiment: NIK Enzyme Inhibition Assay (Transcreener ADP assay); type: biochemical; details: purified NIK 0.2-1 nM, 10 uM ATP, fluorescence polarization, Morrison's quadratic equation; read-out: inhibitory value (Ki) for NIK
T1 construct: made in house; host or cells: baculovirus-infected insect cells
T1 sequence (Q99558 whole entry): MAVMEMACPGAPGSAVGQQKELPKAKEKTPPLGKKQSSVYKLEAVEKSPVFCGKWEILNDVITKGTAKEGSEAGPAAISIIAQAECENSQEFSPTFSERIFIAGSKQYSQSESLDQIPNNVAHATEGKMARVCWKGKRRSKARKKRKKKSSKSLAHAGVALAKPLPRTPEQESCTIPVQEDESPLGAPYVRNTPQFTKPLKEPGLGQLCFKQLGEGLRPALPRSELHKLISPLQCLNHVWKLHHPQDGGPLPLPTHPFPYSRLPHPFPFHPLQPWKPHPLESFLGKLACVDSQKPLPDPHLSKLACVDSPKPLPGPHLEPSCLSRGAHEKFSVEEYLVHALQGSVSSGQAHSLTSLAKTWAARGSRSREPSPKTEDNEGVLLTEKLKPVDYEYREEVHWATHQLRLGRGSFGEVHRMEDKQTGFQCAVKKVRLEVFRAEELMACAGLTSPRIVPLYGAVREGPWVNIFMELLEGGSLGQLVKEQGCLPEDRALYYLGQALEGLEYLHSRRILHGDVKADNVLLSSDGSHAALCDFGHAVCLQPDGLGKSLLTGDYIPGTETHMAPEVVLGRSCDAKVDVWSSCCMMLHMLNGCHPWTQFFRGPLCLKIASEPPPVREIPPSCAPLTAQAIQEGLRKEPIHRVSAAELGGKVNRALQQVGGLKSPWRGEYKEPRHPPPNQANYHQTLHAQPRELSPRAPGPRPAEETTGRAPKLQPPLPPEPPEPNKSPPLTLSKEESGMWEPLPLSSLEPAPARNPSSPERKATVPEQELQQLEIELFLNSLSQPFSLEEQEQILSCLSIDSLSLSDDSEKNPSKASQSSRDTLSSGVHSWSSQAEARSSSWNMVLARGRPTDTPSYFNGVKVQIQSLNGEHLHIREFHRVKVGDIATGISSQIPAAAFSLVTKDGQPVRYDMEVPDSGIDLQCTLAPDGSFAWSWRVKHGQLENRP

[5] = tested on: NF-kB signaling through NIK in human embryonic kidney 293 cells; experiment: 293-NIK NF-kB-Luciferase reporter assay; type: cell-based; details: HEK293, 293 cells with tetracycline-inducible NIK, 1 ug/mL doxycycline, 24 hours, read-out: inhibitory value (IC50) for 293-NIK NF-kB-Luciferase activity
From the text: as §1

| Structure (SMILES) | IC50 [2] [nM] | Ki [4] [nM] | IC50 [1] [nM] | IC50 [3] [nM] | IC50 [5] [nM] |
| --- | --- | --- | --- | --- | --- |
| N#Cc1ccc2cnn(-c3ccnc(N)n3)c2c1 [Example T1-3, 1-(2-aminopyrimidin-4-yl)-1H-indazole-6-carbonitrile] |  |  | ≥ 20000 |  |  |
| Nc1nccc(-n2ncc3ccc(C#CC4(O)CCCC4)cc32)n1 [Example T1-5, 1-((1-(2-aminopyrimidin-4-yl)-1H-indazol-6-yl)ethynyl) cyclopentanol] |  |  | 1600 |  |  |
| C[C@@](O)(C#Cc1ccc2nc(C3CC3)n(-c3ncnc(N)n3)c2c1)c1nccs1 [Example T1-63, (R)-4-(1-(4-amino-1,3,5-triazin-2-yl)-2-cyclopropyl-1H-benzo[d]imidazol-6-yl)-2-(thiazol-2-yl)but-3-yn-2-ol] | 552 | 0.23 | ≥ 20000 |  | 64 |
| Cc1cc(C(C)(O)C#Cc2ccc3nc(C)n(-c4ncnc(N)n4)c3c2)no1 (centres unmarked) [Example T1-64, 4-(1-(4-amino-1,3,5-triazin-2-yl)-2-methyl-1H-benzo[d]imidazol-6-yl)-2-(5-methyl-isoxazol-3-yl)but-3-yn-2-ol] | 2100 | 5 | ≥ 20000 |  | 332 |
| Cc1cc(C(C)(O)C#Cc2ccc3c(C(=O)N4CCOCC4)nn(-c4ccnc(N)n4)c3c2)no1 (centres unmarked) [Example T1-65, (1-(2-aminopyrimidin-4-yl)-6-(3-hydroxy-3-(5-methyl-isoxazol-3-yl)but-1-ynyl)-1H-indazol-3-yl)(morpholino) methanone] |  | 2.65 | ≥ 20000 |  | 133 |
| COCc1nc2ccc(C#C[C@@](C)(O)c3nccs3)cc2n1-c1ncnc(N)n1 [Example T1-68, (R)-4-(1-(4-amino-1,3,5-triazin-2-yl)-2-(methoxymethyl)-1H-benzo[d]imidazol-6-yl)-2-(thiazol-2-yl)but-3-yn-2-ol] |  | 2.7 | ≥ 20000 |  | 553 |

Further lines, with some results ahead:

| IC50 [2] [nM] | Ki [4] [nM] | Structure (SMILES) | IC50 [1] [nM] | IC50 [3] [nM] | IC50 [5] [nM] |
| --- | --- | --- | --- | --- | --- |
| 326 |  | CC(O)(C#Cc1ccc2cnn(-c3ccnc(N)n3)c2c1)c1nccs1 (centres unmarked) [Example T1-1, 4-(1-(2-aminopyrimidin-4-yl)-1H-indazol-6-yl)-2-(thiazol-2-yl)but-3-yn-2-ol] | 6400 | 326 |  |
|  | 14.3 | CC(C)(O)C#Cc1ccc2ncn(-c3ccnc(N)n3)c2c1 [Example T1-10, 4-(1-(2-aminopyrimidin-4-yl)-1H-benzo[d]imidazol-6-yl)-2-methylbut-3-yn-2-ol] | 2600 |  | 1200 |
|  | 13 | Cc1cc(C(C)(O)C#Cc2ccc3c(C)nn(-c4ccnc(N)n4)c3c2)on1 (centres unmarked) [Example T1-48, 4-(1-(2-aminopyrimidin-4-yl)-3-methyl-1H-indazol-6-yl)-2-(3-methylisoxazol-5-yl)but-3-yn-2-ol] | > 20000 |  | 1500 |
|  | 10 | Cc1cc(C(C)(O)C#Cc2ccc3c(C(=O)N(C)C)nn(-c4ccnc(N)n4)c3c2)on1 (centres unmarked) [Example T1-52, 1-(2-aminopyrimidin-4-yl)-6-(3-hydroxy-3-(3-methyl-isoxazol-5-yl)but-1-ynyl)-N,N-dimethyl-1H-indazole-3-carboxamide] | ≥ 20000 | 89 | 1300 |
|  | 105 | Cc1nn(-c2ccnc(N)n2)c2cc(C#CC(C)(O)c3cncs3)ccc12 (centres unmarked) [Example T1-54, 4-(1-(2-aminopyrimidin-4-yl)-3-methyl-1H-indazol-6-yl)-2-(thiazol-5-yl)but-3-yn-2-ol] | 17000 | 489 | 20000 |
| 243 | 0.15 | Cc1cc(C(C)(O)C#Cc2ccc3c(C)nn(-c4ccnc(N)n4)c3c2)no1 (centres unmarked) [Example T1-58, 4-(1-(2-aminopyrimidin-4-yl)-3-methyl-1H-indazol-6-yl)-2-(5-methylisoxazol-3-yl)but-3-yn-2-ol] | 2700 |  | 37 |
| 1900 | 17 | Cc1nn(-c2ccnc(N)n2)c2cc(C#CC(C)(O)c3cnccn3)ccc12 (centres unmarked) [Example T1-62, 4-(1-(2-aminopyrimidin-4-yl)-3-methyl-1H-indazol-6-yl)-2-(pyrazin-2-yl)but-3-yn-2-ol] | ≥ 20000 |  | 305 |
|  | 1.27 | Cc1cc(C(C)(O)C#Cc2ccc3c(C(=O)N4CCCC4)nn(-c4ccnc(N)n4)c3c2)no1 (centres unmarked) [Example T1-66, (1-(2-aminopyrimidin-4-yl)-6-(3-hydroxy-3-(5-methyl-isoxazol-3-yl)but-1-ynyl)-1H-indazol-3-yl)(pyrrolidin-1-yl) methanone] | ≥ 20000 |  | 168 |
|  | 4 | Cc1nn(-c2ccnc(N)n2)c2cc(C#CC(C)(O)c3ncccn3)ccc12 (centres unmarked) [Example T1-67, 4-(1-(2-aminopyrimidin-4-yl)-3-methyl-1H-indazol-6-yl)-2-(pyrimidin-2-yl)but-3-yn-2-ol] | 17600 |  | 217 |
